The text below walks through data of US11352352B2, “Aminopyrimidine compound, preparation method therefor and use thereof” (BEIJING ADAMADLE BIOTECHNOLOGY LIMITED LIABILITY COMPANY, priority 2017, dated 2022).

A word on the pIC50: it is the IC50 on a negative log10 scale, so that one unit is a factor of ten. Lower therefore signals a high IC50.

pIC50: −log10 of the molar value.

Series [1] concerns PC-9. Put plainly: Cell proliferation inhibition experiment, CellTiter-Glo (CTG) method. The conditions noted are these: PC-9 cells, 3 days. Format: cell-based. In a few lines: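 Cells in log-phase growth (viability above 90% by trypan blue) were seeded at 90 μL per well in black-walled, clear-bottom 96-well plates and incubated overnight at 37° C., 5% CO2. A T0 plate was read the next day. Test compounds were added at nine concentrations in triplicate with a solvent control. Viability was measured by CellTiter-Glo luminescence on EnVision, and IC50 came from non-linear S-curve fitting in GraphPad Prism 5.0.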
In general terms: Cellular ATP, detected with luciferase, serves as a proxy for viable cell number.

Series [2] deals with NCI-H1975. Described as above. The settings on record: for pIC50: NCI-H1975 cells, CTG, 3 days; for A-431/NCI-H1975 Selectivity: ratio of A-431 IC50 to NCI-H1975 IC50. Format: cell-based. In a few lines: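 NCI-H1975 cells with viability above 90% by trypan blue were seeded at 90 μL per well in black 96-well plates and incubated overnight at 37° C., 5% CO2. Compounds were added at nine concentrations in triplicate, and viability was measured with CellTiter-Glo luminescence on EnVision. IC50 came from non-linear S-curve fitting in GraphPad Prism 5.0.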

Series [3] has as its target T1, P-gp (Homo sapiens, UniProt P08183).
T1 construct: expressed in transfected cells; host or cells: MDCKII-MDR1 (MDCKII canine kidney cells expressing MDR1)
Nature of the series: P-gp substrate evaluation experiment (MDCKII-MDR1 Transwell drug penetration test). The settings on record: dog, MDCK-MDR1, pH 7.4; read-out: ER (Efflux Ratio). The series is classed as in vitro ADME. How it is done:
P-gp Substrate Evaluation Experiment
Cell Culture • 1) High glucose DMEM medium containing L-glutamine was used and 10% fetal bovine serum, 0.1 mg/mL streptomycin and 0.6 mg/mL penicillin were added. • 2) MDCKII-MDR1 was cultured in a T-75 cell culture bottle. The incubator was set at the condition of 37° C., 5% CO2 and 95% relative humidity. Cells could be inoculated in Transwell when the cell confluence reached 70-90%. • 3) Before cell plant, 50 μL cell culture medium was added to each well in the upper chamber of the Transwell, and […] cell culture medium was added to the lower chamber of the Transwell.
Inoculation of MDCKII-MDR1 Cells • 1) Cell suspension was added to the upper chamber of the 96-well Transwell plate with […] each well, and the final inoculation density was 5.45×10^5 cells/cm^2. • 2) The medium was changed 48 hours after inoculation, the culture was carried out for 4-7 days, and the medium was changed every other day.
Evaluation of Cell Monolayer Integrity • 1) After 4-7 days of culture, MDCKII-MDR1 and MDKII should merge and differentiate completely. At this time, they could be applied to penetration test. • 2) The resistance of cell monolayer was measured by a resistance meter (Millipore, USA) and the resistance of each well was recorded. • 3) After finishing the detection, the Transwell plate was put back into the incubator. • 4) Resistance value was calculated: Resistance measured (ohms)×layer area (cm^2)=TEER value (ohm·cm^2)
If TEER value was less than 42 ohms·cm^2, the well can not be used for penetration testing.
Drug Penetration Test • 1) The MDCKII-MDR1 Transwell plate was taken out from the incubator. The cell monolayer was rinsed with HBSS buffer (25 mM HEPES, pH 7.4) twice and incubated for 30 minutes at 37° C. • 2) The transport rate of compounds from the top to the bottom was determined. […] 70 μL supernatant was drawn, diluted with equal volume of water and then subjected to LC-MS/MS analysis. All samples were prepared in three parallel ways. • 6) The cell monolayer integrity after 2-hour incubation was evaluated by leakage of fluorescent yellow, HBSS (25 mM HEPES, pH 7.4) was used to dilute the stock solution of fluorescent yellow till the final concentration was 100 μM. 100 μL fluorescent yellow solution was added to each well in the upper chamber of the Transwell plate and 300 μL HBSS (25 mM HEPES, pH 7.4) was added to each well in the lower chamber of the Transwell plate. After incubation at 37° C. for 30 minutes, 80 μL solution was drawn respectively from each well in the upper and lower chamber to a new 96-well plate. The fluorescence was determined at 485 nm as excitation wavelength and 530 nm as emission wavelength by using a microplate reader.
Data calculation was carried out through Excel, the apparent permeability index (Papp, cm/s) of compounds was calculated through the formula shown as follow: […]
wherein, the membrane area in the formula is the membrane area of Transwell-96 plate (0.143 cm^2); the unit of incubation time is second (s).
Efflux ratio was calculated through the formula shown as follow: […]

For series [4], the system named is A-431. Nature of the series: Cell proliferation inhibition experiment, CellTiter-Glo (CTG) method. The series is classed as cell-based. The settings on record: A-431 cells, 3 days. In a few lines: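 CTG luminescence measured after 3-day compound exposure, with a T0 plate read the day after seeding and solvent wells as control. Nine concentrations, 3-fold steps, in triplicate: A-431 from 30 μM, NCI-H1975 and PC-9 from 1.111 μM. IC50 derived by non-linear S-curve regression.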

T1 sequence (P08183 whole entry): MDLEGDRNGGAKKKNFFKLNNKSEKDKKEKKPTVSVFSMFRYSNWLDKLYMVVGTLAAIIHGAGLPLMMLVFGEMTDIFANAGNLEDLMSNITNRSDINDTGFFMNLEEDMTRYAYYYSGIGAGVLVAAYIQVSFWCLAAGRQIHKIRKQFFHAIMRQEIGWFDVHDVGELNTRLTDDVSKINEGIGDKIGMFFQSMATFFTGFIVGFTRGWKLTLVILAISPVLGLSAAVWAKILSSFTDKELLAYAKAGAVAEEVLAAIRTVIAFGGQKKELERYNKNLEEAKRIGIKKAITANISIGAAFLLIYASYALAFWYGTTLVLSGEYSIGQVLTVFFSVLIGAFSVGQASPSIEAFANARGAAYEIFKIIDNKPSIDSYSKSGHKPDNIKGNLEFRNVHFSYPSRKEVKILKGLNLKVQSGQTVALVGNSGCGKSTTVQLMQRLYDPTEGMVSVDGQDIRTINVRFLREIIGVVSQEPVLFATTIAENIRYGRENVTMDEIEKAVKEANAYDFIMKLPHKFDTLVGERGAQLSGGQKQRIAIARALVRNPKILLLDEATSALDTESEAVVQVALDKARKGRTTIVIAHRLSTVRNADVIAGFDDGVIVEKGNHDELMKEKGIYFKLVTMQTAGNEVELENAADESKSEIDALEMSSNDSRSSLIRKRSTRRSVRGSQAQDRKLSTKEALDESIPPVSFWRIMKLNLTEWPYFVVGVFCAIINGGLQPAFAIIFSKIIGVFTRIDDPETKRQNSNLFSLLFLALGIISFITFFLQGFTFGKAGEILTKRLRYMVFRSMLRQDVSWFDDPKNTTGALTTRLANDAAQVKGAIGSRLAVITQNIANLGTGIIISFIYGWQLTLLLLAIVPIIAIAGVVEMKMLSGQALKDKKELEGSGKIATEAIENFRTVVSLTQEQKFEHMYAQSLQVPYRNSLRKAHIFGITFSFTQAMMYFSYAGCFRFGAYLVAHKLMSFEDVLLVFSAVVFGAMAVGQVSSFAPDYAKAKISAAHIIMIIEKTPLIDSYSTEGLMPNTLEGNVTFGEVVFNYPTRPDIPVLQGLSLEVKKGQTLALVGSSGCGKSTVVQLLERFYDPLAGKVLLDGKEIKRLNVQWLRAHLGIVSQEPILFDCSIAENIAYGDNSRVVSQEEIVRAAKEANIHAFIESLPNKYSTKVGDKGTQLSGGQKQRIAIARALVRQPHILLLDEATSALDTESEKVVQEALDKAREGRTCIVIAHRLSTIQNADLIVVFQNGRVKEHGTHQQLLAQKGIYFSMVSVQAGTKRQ

Regarding `C=CC(=O)Nc1cc(Nc2nccc(-c3ccc4c(cnn4C)c3)n2)c(OC)cc1N(C)CCN(C)C` [compound 3], the negative-log IC50 (pIC50) is 8.10 in series [1] (Homo sapiens, PC-9, 72 h); 8.39 in series [2] (Homo sapiens, NCI-H1975, 72 h); 6.31 in series [4] (Homo sapiens, A-431, 72 h). In series [2], the “A-431/NCI-H1975 Selectivity” value worked out at 120.3. Also, the efflux ratio at 2 h in series [3] turned out to be 5.87.
For `C=CC(=O)Nc1cc(Nc2cc(-c3ccc4c(cnn4C)c3)ncn2)c(OC)cc1N1CCN(C)CC1` [compound 8], in that order: 7.56, 8.46, 6.06, 251.1 and 3.14.
For the compound `C=CC(=O)Nc1cc(Nc2cc(-c3ccc4c(cnn4C)c3)ncn2)c(OC)cc1N1CC(C)N(C)C(C)C1` (stereo not shown) [compound 23], the negative logarithm of the IC50 (pIC50) in series [1] (Homo sapiens, PC-9, 72 h) is 8.05; in series [2] (Homo sapiens, NCI-H1975, 72 h), 7.86; in series [4] (Homo sapiens, A-431, 72 h) it was 6.21. For the same compound, the “A-431/NCI-H1975 Selectivity” value in series [2] was found to be 45.0. Also, the efflux ratio at 2 h in series [3] was found to be 4.28.
For `C=CC(=O)Nc1cc(Nc2cc(-c3ccc4c(cnn4C)c3)ncn2)c(OC)cc1N1C[C@@H](C)N(C)[C@@H](C)C1` [compound 24], in that order: 8.09, 7.93, 5.97, 90.1 and 1.05.
Turning to `C=CC(=O)Nc1cc(Nc2cc(-c3ccc4c(cnn4C)c3)ncn2)c(OC)cc1N1CCC(N(C)C)CC1` [compound 26], the pIC50 in series [1] (Homo sapiens, PC-9, 72 h) is 8.04; in series [2] (Homo sapiens, NCI-H1975, 72 h) it was 7.98; in series [4] (Homo sapiens, A-431, 72 h) it was 6.67. Besides, the “A-431/NCI-H1975 Selectivity” value in series [2] is reported as 20.7. Also, the efflux ratio at 2 h in series [3] stood at 5.79.
With `C=CC(=O)Nc1cc(Nc2cc(-c3ccc4c(cnn4C)c3)ncn2)c(OC)cc1N1CCC(N2CCOCC2)CC1` [compound 27], the pIC50 in series [1] was 7.67; in series [2], 7.85; in series [4] it was 6.41. Moreover, in series [2], the “A-431/NCI-H1975 Selectivity” value was found to be 27.2. For the same compound, the efflux ratio at 2 h in series [3] amounted to 1.67.
Turning to `C=CC(=O)Nc1cc(Nc2cc(-c3ccc4c(cnn4C)c3)ncn2)c(OC)cc1N1CCC(N2CCN(C)CC2)CC1` [compound 33], the pIC50 is 8.09 in series [1] (Homo sapiens, PC-9, 72 h); 8.25 in series [2] (Homo sapiens, NCI-H1975, 72 h); 6.09 in series [4] (Homo sapiens, A-431, 72 h). Further, the “A-431/NCI-H1975 Selectivity” value in series [2] was 145.7. The efflux ratio at 2 h in series [3] turned out to be 7.7.
For `C=CC(=O)Nc1cc(Nc2cc(-c3ccc4c(cnn4C)c3)ncn2)c(OC)cc1N1CCC(C2CCN(C)CC2)CC1` [compound 34], in that order: 7.97, 7.58, 5.71, 74.1 and 6.12.
In the same order, the values of `C=CC(=O)Nc1cc(Nc2cc(-c3ccc4c(cnn4C)c3)ncn2)c(OC)cc1N(C)CCN1CCN(C)CC1` [compound 60] are 8.02, 7.97, 5.64, 217.0 and 6.49.
For `C=CC(=O)Nc1cc(Nc2cc(-c3ccc4c(cnn4C)c3)ncn2)c(OC)cc1N(C)CCN(CC)CC` [compound 62], in that order: 7.80, 7.47, 5.93, 35.0 and 2.44.
As to `C=CC(=O)Nc1cc(Nc2nccc(-c3ccc4c(cnn4C)c3)n2)c(OC)cc1N1CCC(N2CCCC2)CC1` [compound 68], the negative logarithm of the IC50 (pIC50) in series [1] (Homo sapiens, PC-9, 72 h) was 7.82; in series [2] (Homo sapiens, NCI-H1975, 72 h), 7.83; in series [4] (Homo sapiens, A-431, 72 h) it was 6.04. The “A-431/NCI-H1975 Selectivity” value in series [2] was found to be 62.7. In series [3], the efflux ratio at 2 h turned out to be 8.98.
`C=CC(=O)Nc1cc(Nc2cc(-c3ccc4c(cnn4C)c3)ncn2)c(OC)cc1N(C)C1CCN(C2CCN(C)CC2)CC1` [compound 70]: the pIC50 in series [1] (Homo sapiens, PC-9, 72 h) was 7.83; in series [2] (Homo sapiens, NCI-H1975, 72 h), 7.75; in series [4] (Homo sapiens, A-431, 72 h), 5.93. Also, the “A-431/NCI-H1975 Selectivity” value in series [2] is 66.1. The efflux ratio at 2 h in series [3] came to 41.4.
For `C=CC(=O)Nc1cc(Nc2cc(-c3ccc4c(cnn4C)c3)ncn2)c(OC)cc1N1CCN(CCOC)CC1` [compound 99], in that order: 7.36, 8.01, 6.05, 90.4 and 1.54.
For the compound `C=CC(=O)Nc1cc(Nc2cc(-c3ccc4c(cnn4C)c3)ncn2)c(OC)cc1N1CCC(N2C[C@@H](C)N(C)[C@@H](C)C2)CC1` [compound 100], the pIC50 in series [1] (Homo sapiens, PC-9, 72 h) was 7.82; in series [2] (Homo sapiens, NCI-H1975, 72 h), 8.24; in series [4] (Homo sapiens, A-431, 72 h) it was 6.18. For the same compound, the “A-431/NCI-H1975 Selectivity” value in series [2] stood at 114.7. In series [3], the efflux ratio at 2 h was 20.
For `C=CC(=O)Nc1cc(Nc2cc(-c3ccc4c(cnn4C)c3)ncn2)c(OC)cc1N1CCC(N2C[C@@H](C)O[C@@H](C)C2)CC1` [compound 103], in that order: 7.72, 8.10, 6.19, 81.0 and 2.28.
For the compound `C=CC(=O)Nc1cc(Nc2cc(-c3ccc4c(cnn4C)c3)ncn2)c(OC)cc1OCCN(C)C` [compound 104], the pIC50 in series [1] (Homo sapiens, PC-9, 72 h) is 7.85; in series [2] (Homo sapiens, NCI-H1975, 72 h), 8.22; in series [4] (Homo sapiens, A-431, 72 h) it was 6.26. Moreover, the “A-431/NCI-H1975 Selectivity” value in series [2] came out at 90.6. For the same compound, the efflux ratio at 2 h in series [3] turned out to be 3.12.
In the same order, the values of `C=CC(=O)Nc1cc(Nc2cc(-c3ccc4c(cnn4C)c3)ncn2)c(OC)cc1N1CCC(N2CCCC2)CC1` [compound 108] are 8.24, 8.49, 6.25, 177.3 and 18.1.
For `C=CC(=O)Nc1cc(Nc2cc(-c3ccc4c(cnn4C)c3)ncn2)c(OC(F)F)cc1N1CCN(CCN(C)C)CC1` [compound 115], in that order: 8.05, 8.28, 6.27, 100.5 and 41.9.
In the same order, the values of `C=CC(=O)Nc1cc(Nc2cc(-c3ccc4c(cnn4CC)c3)ncn2)c(OC)cc1N1CCN(CCN(C)C)CC1` [compound 116] are 8.09, 8.04, 6.18, 71.9 and 67.9.
In the case of `C=CC(=O)Nc1cc(Nc2cc(-c3ccc4c(cnn4C)c3)ncn2)c(OC)cc1N1CCC(N2CCN(C(C)=O)CC2)CC1` [compound 129], the negative-log IC50 (pIC50) in series [1] (Homo sapiens, PC-9, 72 h) was 7.88; in series [2] (Homo sapiens, NCI-H1975, 72 h), 8.10; in series [4] (Homo sapiens, A-431, 72 h), 6.13. Further, the “A-431/NCI-H1975 Selectivity” value in series [2] is 93.3. Besides, the efflux ratio at 2 h in series [3] is 55.7.
